Experimental findings from US7501425B1, “Bicyclic pyrimidines and bicyclic 3,4-dihydropyprimidines as inhibitors of cellular proliferation” (Warner Lambert Company, priority 1999, dated 2009) are described below.

A word on the melting point: it is the temperature of the solid-liquid transition.

Structures are written as SMILES.

In one series the target is cdk4/D (Homo sapiens, UniProt P11802). The experiment in a line: Cyclin-Dependent Kinase 4 (cdk4) enzyme assay, 32P incorporation. The format is biochemical. The conditions noted are these: 25 μM ATP, retinoblastoma substrate. How it is done:
A typical assay, for instance, measures inhibitory activity against the cyclin D dependent kinase 4 enzyme (cdk4/D). […] The cdk4 assay was carried out as follows.
Cyclin-Dependent Kinase 4 (cdk4) Assay
Enzyme assays for IC50 determinations (Tables 1 and 2) and kinetic evaluation were performed in 96 well filter plates (Millipore MADVN6550). The total volume was 0.1 mL containing a final concentration of 20 mM TRIS (tris[hydroxymethyl]aminomethane), at pH 7.4, 50 mM NaCl, 1 mM dithiothreitol, 10 mM MgCl2, 25 μM ATP containing 0.25 μCi of [^32P]ATP, 20 ng of cdk4, 1 μg of retinoblastoma, and appropriate dilutions of a compound of the present invention. All components except the ATP were added to the wells, and the plate was placed on a plate mixer for 2 minutes. The reaction was started by adding [^32P]ATP and the plate was incubated at 25° C. for 15 minutes. The reaction was terminated by addition of 0.1 mL of 20% trichloroacetic acid (TCA). The plate was kept at 4° C. for at least 1 hour to allow the substrate to precipitate. The wells were then washed five times with 0.2 mL of 10% TCA and ^32p incorporation was determined with a beta plate counter (Wallac Inc., Gaithersburg. MD).

The target in the next series is cdk2/cyclinE (Homo sapiens, UniProt P24941). Briefly: Cyclin-dependent kinase assay cdk2/cyclinE. The format is biochemical. The settings on record: read-out: cdk2/E IC50. How it is done: (§1) Cyclin-Dependent Kinase Assays (cdk2/cyclinE, cdk2/cyclinA, cdc2/cyclinB)
(§2) All components except the ATP were added to the wells, and the plate was placed on a plate mixer for 2 minutes. The reaction was begun by addition of [^32P]ATP, and the plate was incubated at 25° C. for 15 minutes. The reaction was terminated by addition of 0.1 mL of 20% TCA. The plate was kept at 4° C. for at least 1 hour to allow the substrate to precipitate. The wells were then washed five times with 0.2 mL of 10% TCA and ^32P incorporation determined with a beta plate counter (Wallac Inc., Gaithersburg, Md.).

Another series deals with cdk2/cyclinA (Homo sapiens, UniProt P24941). The experiment in a line: Cyclin-dependent kinase assay cdk2/cyclinA. The format is biochemical. As for the experimental part: as §1, §2
The next series addresses cdc2/cyclinB (Homo sapiens, UniProt P06493). The experiment in a line: Cyclin-dependent kinase assay cdc2/cyclinB (cdk1/B). The format is biochemical. How it is done:
as §1, §2

Series [1] addresses T1, PDGF-β receptor tyrosine kinase (Mus musculus, UniProt P05622).
T1 construct: amplify a fragment of DNA that codes for the intracellular tyrosine kinase domain; made in house; host or cells: SF9 insect cells (baculovirus)
Briefly: PDGF receptor tyrosine kinase assay. The format is biochemical. The conditions noted are these: intracellular tyrosine kinase domain, SF9 lysate. As for the experimental part:
(§3) The assays used to determine these activities were carried out as follows:
(§4) PDGF and FGF Receptor Tyrosine Kinase Assays
(§5) PCR primers were designed to amplify a fragment of DNA that codes for the intracellular tyrosine kinase domain. The fragment was inserted into a baculovirus vector, cotransfected with AcMNPV DNA, and the recombinant virus isolated. SF9 insect cells were infected with the virus to overexpress the protein, and the cell lysate was used for the assay. Assays were performed in 96-well plates (100 μL/incubation/well), and conditions were optimized to measure the incorporation of ^32P from γ^32P-ATP into a glutamate-tyrosine co-polymer substrate. Briefly, to each well was added 82.5 μL of incubation buffer containing 25 mM Hepes (pH 7.0), 150 mM NaCl, 0.1% Triton X-100, 0.2 mM PMSF, 0.2 mM Na3VO4, 10 mM MnCl2, and 750 μg/mL of Poly (4:1) glutamate-tyrosine followed by 2.5 μL of inhibitor and 5 μL of enzyme lysate (7.5 μg/μL FGF-TK or 6.0 μg/μL PDGF-TK) to initiate the reaction. Following a 10 minute incubation at 25° C., […] of γ^32P-ATP (0.4 μCi plus 50 μM ATP) was added to each well, and samples were incubated for an additional 10 minutes at 25° C. […] Nonspecific activity was defined as radioactivity retained on the filters following incubation of samples with buffer alone (no enzyme). […]

The target of the next series is T2, c-Src (Homo sapiens, UniProt P12931).
T2 construct: made in house; host or cells: baculovirus infected insect cells
T2 sequence (P12931 whole entry, species assumed): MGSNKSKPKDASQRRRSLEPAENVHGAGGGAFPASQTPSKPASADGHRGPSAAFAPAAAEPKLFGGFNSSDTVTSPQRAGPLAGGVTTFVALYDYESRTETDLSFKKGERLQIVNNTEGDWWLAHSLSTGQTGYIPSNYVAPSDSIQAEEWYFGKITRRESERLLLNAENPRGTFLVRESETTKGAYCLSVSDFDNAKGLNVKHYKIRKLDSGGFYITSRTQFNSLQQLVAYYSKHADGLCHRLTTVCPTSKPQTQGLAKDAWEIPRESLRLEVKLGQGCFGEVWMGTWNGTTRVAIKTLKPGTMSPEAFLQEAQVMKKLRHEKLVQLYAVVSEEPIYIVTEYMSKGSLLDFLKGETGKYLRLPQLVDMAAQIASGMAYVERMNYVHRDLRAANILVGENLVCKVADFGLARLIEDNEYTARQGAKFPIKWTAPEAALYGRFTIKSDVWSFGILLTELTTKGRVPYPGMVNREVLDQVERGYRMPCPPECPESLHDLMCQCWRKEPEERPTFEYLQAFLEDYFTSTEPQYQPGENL
The experiment in a line: c-Src kinase assay. The format is biochemical. The conditions noted are these: 5 μM ATP, poly GluTyr substrate. As for the experimental part:
Several of the invention compounds have been evaluated in a standard assay to measure their ability to inhibit cellular Src protein kinase (c-Src). […] The assay was carried out as follows:
c-Src kinase was purified from baculovirus infected insect cell lysates using an antipeptide monoclonal antibody directed against the N-terminal amino acids (amino acids 2-17) of c-Src. The antibody, covalently linked to 0.65 μm latex beads, was added to a suspension of insect cell lysis buffer comprised of 150 mM NaCl, 50 mM Tris pH 7.5, 1 mM DTT, 1% NP-40, 2 mM EGTA, 1 mM sodium vanadate, 1 mM PMSF, 1 μg/mL each of leupeptin, pepstatin, and aprotinin. Insect cell lysate containing c-Src protein was incubated with these beads for 3 to 4 hours at 4° C. with rotation. At the end of the lysate incubation, the beads were rinsed three times in lysis buffer, resuspended in lysis buffer containing 10% glycerol, and frozen. These latex beads were thawed, rinsed three times in assay buffer (40 mM Tris, pH 7.5, 5 mM […]) and suspended in the same buffer. In a Millipore 96-well plate with a 0.65 μm polyvinylidine membrane bottom were added the reaction components: 10 μL c-Src beads, 10 μL of 2.5 mg/mL poly GluTyr substrate, 5 μM ATP containing 0.2 μCi labeled ^32P-ATP, 5 μL DMSO containing inhibitors or as a solvent control, and buffer to make the final volume 125 μL. The reaction was started at room temperature by addition of the ATP and quenched 10 minutes later by the addition of 125 μL of 30% TCA, 0.1 M sodium pyrophosphate for 5 minutes on ice. The plate was then filtered and the wells washed with two […] aliquots of 15% TCA, 0.1 M pyrophosphate. The filters were then punched, counted in a liquid scintillation counter, and the data examined for inhibitory activity in comparison to a known inhibitor such as erbstatin. The method is also described in J. Med. Chem., 1994; 37:598-609. Tables 5 and 6 list c-Src inhibitory concentrations (IC50) for representative invention compounds.

Series [2] deals with T3, FGF-1 (flg) receptor tyrosine kinase (Homo sapiens, UniProt P11362).
T3 construct: amplify a fragment of DNA that codes for the intracellular tyrosine kinase domain; made in house; host or cells: SF9 insect cells (baculovirus)
T3 sequence (P11362 478-767 limits assumed): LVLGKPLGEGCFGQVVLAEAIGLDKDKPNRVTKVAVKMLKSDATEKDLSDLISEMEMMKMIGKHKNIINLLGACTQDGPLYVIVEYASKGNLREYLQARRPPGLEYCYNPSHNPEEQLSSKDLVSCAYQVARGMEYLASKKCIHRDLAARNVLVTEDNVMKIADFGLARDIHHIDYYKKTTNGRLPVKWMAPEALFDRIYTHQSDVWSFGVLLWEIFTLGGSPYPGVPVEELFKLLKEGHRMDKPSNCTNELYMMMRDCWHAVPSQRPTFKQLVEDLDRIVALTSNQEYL
The experiment in a line: FGF receptor tyrosine kinase assay. The format is biochemical. The conditions noted are these: intracellular tyrosine kinase domain, SF9 lysate. How it is done:
as §3, §4, §5

Sequence of cdk4/D (P11802 whole entry, species assumed): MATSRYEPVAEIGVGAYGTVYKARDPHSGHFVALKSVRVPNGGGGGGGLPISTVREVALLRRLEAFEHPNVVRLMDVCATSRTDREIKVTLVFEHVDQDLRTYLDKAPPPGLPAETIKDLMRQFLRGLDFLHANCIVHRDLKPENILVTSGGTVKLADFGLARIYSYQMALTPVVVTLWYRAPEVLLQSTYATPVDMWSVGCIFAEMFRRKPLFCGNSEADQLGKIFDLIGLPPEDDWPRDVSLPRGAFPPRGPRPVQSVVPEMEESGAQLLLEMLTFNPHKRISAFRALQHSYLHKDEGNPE
Sequence of cdk4/D (P24385 whole entry partner, species assumed): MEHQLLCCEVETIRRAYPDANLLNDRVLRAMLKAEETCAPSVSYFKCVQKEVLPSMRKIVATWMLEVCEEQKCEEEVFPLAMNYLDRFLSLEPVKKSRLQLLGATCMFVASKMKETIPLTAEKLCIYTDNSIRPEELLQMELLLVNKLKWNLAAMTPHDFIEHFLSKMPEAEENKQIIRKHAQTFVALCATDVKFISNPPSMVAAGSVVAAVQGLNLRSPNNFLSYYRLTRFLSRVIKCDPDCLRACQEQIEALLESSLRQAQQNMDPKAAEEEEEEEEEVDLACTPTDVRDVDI
Sequence of cdc2/cyclinB (P06493 whole entry, species assumed): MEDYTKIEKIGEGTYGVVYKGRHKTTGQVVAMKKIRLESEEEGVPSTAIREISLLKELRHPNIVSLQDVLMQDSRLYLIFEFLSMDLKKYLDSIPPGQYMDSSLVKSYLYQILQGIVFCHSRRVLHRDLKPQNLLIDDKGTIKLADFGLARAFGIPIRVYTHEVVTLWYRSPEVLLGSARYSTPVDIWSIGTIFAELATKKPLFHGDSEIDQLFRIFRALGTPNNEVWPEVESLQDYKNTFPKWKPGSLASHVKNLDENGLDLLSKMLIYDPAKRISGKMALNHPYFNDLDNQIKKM
Sequence of cdc2/cyclinB (P14635 whole entry partner, species assumed): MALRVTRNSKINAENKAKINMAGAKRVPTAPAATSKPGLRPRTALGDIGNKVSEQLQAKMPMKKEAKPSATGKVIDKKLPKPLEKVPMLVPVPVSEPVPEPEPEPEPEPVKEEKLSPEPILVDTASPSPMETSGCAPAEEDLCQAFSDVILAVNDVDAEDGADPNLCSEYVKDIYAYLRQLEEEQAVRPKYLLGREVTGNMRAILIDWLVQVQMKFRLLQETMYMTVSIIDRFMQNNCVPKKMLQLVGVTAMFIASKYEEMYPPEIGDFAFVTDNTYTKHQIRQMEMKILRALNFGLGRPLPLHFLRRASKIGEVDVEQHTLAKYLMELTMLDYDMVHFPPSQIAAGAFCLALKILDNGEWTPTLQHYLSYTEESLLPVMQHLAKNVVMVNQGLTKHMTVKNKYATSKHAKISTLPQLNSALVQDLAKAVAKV
T1 sequence (P05622 599-961 limits assumed): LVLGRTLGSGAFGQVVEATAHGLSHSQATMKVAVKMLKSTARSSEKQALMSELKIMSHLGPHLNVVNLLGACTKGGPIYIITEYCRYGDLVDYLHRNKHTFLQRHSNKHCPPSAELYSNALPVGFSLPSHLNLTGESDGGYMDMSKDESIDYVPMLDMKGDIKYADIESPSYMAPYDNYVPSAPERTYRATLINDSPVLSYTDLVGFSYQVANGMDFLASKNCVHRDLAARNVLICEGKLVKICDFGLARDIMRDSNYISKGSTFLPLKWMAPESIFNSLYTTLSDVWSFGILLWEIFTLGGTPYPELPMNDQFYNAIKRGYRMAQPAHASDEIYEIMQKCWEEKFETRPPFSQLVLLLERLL

With `CN(C)C1CCN(c2ccc(Nc3ncc4c(n3)N(C3CCCC3)C(=O)NC4)cc2)CC1` [Example 17, 1-Cyclopentyl-7-{4-[4-(dimethylamino)piperidin-1-yl]phenylamino}-3,4-dihydro-pyrimido[4,5-d]pyrimidin-2(1H)-one], the melting point is > 200 °C (dec.). In addition, the IC50 on cdk4/D was 0.31 µM. The IC50 on cdk2/cyclinE is 3.55 µM. The compound also showed an IC50 against cdk2/cyclinA of 1.31 µM. Further, the IC50 against cdc2/cyclinB came out at 20.2 µM. This compound returned an IC50 in series [1] of 0.32 µM. Also, at c-Src, the IC50 turned out to be 0.37 µM.

With `O=C1NCc2cnc(Nc3ccc(N4CCC(CCN5CCOCC5)CC4)cc3)nc2N1C1CCCC1` [Example 21], the IC50 against cdk4/D worked out at 0.165 µM; on cdk2/cyclinE, 3 µM; at cdk2/cyclinA, 1.37 µM; against cdc2/cyclinB, 36.1 µM; in series [1] it was 1.1 µM; against c-Src, 1.6 µM.

For the compound `CN1CCN(c2ccc(Nc3ncc4c(n3)N(C3CC5CCC3C5)C(=O)NC4)cc2)CC1` (stereo not drawn) [Example 27, 1-Bicyclo[2.2.1]hept-2-yl-7-[4-(4-methylpiperazin-1-yl)phenylamino]-3,4-dihydro-pyrimido[4,5-d]pyrimidin-2(1H)-one (exo)], the melting point is 251 to 254 °C (dec.). The same compound displayed an IC50 at cdk4/D of 0.77 µM. Also, the IC50 at cdk2/cyclinE is 1.1 µM. At cdk2/cyclinA, this compound returned an IC50 of 0.53 µM. The same compound showed an IC50 at cdc2/cyclinB of 9.77 µM.

As to `CC(C)n1c(=O)ncc2cnc(Nc3ccc(N4CCC(CCCN5CCOCC5)CC4)cc3)nc21` [Example 43, 1-Isopropyl-7-{4-[4-(3-(morpholin-4-yl)propyl)piperidin-1-yl]phenylamino}-pyrimido[4,5-d]pyrimidin-2(1H)-one], the IC50 is 0.54 µM against cdk4/D; 38 µM on cdk2/cyclinE; 7.49 µM against cdk2/cyclinA; over 40 µM against cdc2/cyclinB; 4.93 µM in series [2].

Regarding `CN1CCN(c2ccc(Nc3ncc4cnc(=O)n(C5CC6CCC5C6)c4n3)cc2)CC1` (stereo not drawn) [Example 44, 1-Bicyclo [2.2.1]hept-2-yl-7-[4-(4-methylpiperazin-1-yl)phenylamino]-pyrimido[4,5-d]pyrimidin-2(1H)-one, exo], the melting point was > 210 °C (dec.). Moreover, at cdk4/D, the IC50 was found to be 0.018 µM. Also, the IC50 at cdk2/cyclinE amounted to 1.2 µM. On cdk2/cyclinA, this compound displayed an IC50 of 1.03 µM. Also, at cdc2/cyclinB, the IC50 worked out at 7.36 µM. Also, in series [2], the IC50 came to 0.47 µM. On c-Src, this compound had an IC50 of 2.3 µM.
